Results published in ChEMBL document CHEMBL2321810, “QSAR investigation of NaV1.7 active compounds using the SVM/Signature approach and the Bioclipse Modeling platform” (Bioorg Med Chem Lett, 2013).

Target: Sodium channel protein type 9 subunit alpha (Homo sapiens, UniProt Q15858)
Experiment: cell-based

Sequence of Sodium channel protein type 9 subunit alpha (Q15858 whole entry): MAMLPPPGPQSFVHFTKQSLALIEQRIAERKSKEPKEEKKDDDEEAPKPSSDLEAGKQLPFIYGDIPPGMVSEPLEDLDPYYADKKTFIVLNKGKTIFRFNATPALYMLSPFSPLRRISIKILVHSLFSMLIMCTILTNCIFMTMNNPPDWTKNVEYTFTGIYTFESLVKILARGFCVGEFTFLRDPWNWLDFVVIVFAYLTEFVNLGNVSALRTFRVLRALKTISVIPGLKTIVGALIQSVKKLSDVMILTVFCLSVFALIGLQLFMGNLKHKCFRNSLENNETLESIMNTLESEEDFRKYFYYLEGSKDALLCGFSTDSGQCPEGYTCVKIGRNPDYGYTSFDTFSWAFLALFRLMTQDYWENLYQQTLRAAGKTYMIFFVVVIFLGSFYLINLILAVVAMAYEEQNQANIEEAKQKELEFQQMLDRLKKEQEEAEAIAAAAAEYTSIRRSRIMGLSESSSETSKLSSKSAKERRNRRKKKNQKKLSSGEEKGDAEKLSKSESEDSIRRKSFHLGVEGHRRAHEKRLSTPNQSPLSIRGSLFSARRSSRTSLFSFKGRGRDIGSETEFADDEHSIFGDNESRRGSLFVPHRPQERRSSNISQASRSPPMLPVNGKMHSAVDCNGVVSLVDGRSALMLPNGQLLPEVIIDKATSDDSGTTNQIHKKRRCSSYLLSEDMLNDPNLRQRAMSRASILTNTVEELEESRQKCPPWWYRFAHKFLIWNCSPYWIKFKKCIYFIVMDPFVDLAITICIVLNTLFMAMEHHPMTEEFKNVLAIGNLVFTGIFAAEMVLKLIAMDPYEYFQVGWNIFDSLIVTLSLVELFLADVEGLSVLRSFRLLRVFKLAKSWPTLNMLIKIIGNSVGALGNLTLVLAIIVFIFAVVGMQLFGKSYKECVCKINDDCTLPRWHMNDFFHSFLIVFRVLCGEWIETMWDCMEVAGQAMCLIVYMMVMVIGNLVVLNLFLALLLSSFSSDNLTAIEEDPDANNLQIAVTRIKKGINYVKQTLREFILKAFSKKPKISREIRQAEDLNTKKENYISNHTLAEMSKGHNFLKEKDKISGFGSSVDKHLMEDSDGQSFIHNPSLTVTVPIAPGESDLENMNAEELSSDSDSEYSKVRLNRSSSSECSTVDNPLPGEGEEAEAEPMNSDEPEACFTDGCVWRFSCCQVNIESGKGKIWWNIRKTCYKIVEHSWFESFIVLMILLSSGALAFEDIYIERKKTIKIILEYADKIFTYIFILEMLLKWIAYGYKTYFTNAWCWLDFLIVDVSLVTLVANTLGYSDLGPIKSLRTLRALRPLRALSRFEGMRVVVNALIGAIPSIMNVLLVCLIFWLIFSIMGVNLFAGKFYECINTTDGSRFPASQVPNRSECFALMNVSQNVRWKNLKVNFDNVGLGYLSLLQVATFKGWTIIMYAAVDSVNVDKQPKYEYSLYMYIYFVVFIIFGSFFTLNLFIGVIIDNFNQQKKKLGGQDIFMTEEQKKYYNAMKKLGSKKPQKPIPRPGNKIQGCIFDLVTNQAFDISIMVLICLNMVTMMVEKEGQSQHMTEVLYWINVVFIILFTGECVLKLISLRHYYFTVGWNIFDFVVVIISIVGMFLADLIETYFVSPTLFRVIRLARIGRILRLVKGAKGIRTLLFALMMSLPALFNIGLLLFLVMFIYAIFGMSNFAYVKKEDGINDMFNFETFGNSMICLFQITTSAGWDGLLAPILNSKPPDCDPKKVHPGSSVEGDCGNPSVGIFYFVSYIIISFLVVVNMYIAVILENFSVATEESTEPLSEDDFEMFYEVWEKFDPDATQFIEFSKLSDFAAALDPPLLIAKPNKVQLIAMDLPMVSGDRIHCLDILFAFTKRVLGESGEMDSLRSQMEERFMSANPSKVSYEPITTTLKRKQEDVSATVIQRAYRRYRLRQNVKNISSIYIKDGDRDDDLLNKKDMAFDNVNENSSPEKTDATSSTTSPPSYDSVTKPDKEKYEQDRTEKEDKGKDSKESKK

`CCn1nc(C(F)(F)F)cc1-c1ccc(Oc2ccc(S(=O)(=O)Nc3ncc(F)s3)cc2F)cc1` and `CCn1nc(C(F)(F)F)cc1-c1ccc(Oc2ccc(S(=O)(=O)Nc3nncs3)cc2C#N)cc1` are within 1.5-fold of each other in IC50: 820 nM for the first, 770 nM for the second.

Compared with `N#Cc1ccc(Oc2cc(F)c(S(=O)(=O)Nc3ncns3)cc2Cl)c(-c2ccn[nH]2)c1`, `O=S(=O)(Nc1nncs1)c1ccc(Oc2ccc(Cl)cc2-c2ccn[nH]2)c(Cl)c1` is 5.3-fold higher in IC50: 9.4 nM for the first, 50 nM for the second.

Going from `Cn1nccc1-c1cc(Cl)ccc1Oc1ccc(S(=O)(=O)Nc2cncnc2)cc1C#N` to `Cn1nccc1-c1cc(Cl)ccc1Oc1ccc(S(=O)(=O)Nc2cccnc2)cc1C#N`, the IC50 falls from 30000 nM to 10000 nM (3-fold).

`N#Cc1cc(S(=O)(=O)Nc2nccs2)ccc1Oc1ccc(-n2cc(C(N)=O)cn2)cc1` and `CN(C)C(=O)c1cnn(-c2ccc(Oc3ccc(S(=O)(=O)Nc4nccs4)cc3C#N)cc2)c1` are the same in IC50: 1000 nM for the first, 1000 nM for the second.

`CC1CN(c2ccc(Oc3ccc(S(=O)(=O)Nc4nccs4)cc3C#N)cc2)C(=O)N1` (centres undefined) and `N#Cc1cc(S(=O)(=O)Nc2nccs2)ccc1Oc1ccc(N2CCNC2=O)cc1` are the same in IC50: 1000 nM for the first, 1000 nM for the second.

`COc1nccnc1NS(=O)(=O)c1ccc(Oc2ccc(Cl)cc2-c2ccnn2C)c(C#N)c1` and `Cc1cnc(NS(=O)(=O)c2ccc(Oc3ccc(Cl)cc3-c3ccnn3C)c(C#N)c2)cn1` are the same in IC50: 10000 nM for the first, 10000 nM for the second.

First: N#Cc1ccnc(NS(=O)(=O)c2ccc(Oc3ccccc3-c3ccccc3)c(C#N)c2)c1
Second: N#Cc1ccc(NS(=O)(=O)c2ccc(Oc3ccccc3-c3ccccc3)c(C#N)c2)nc1
The IC50 of the first is 25-fold lower: 1000 nM for the first, 25000 nM for the second. The first is the more potent here.

`N#Cc1cc(S(=O)(=O)Nc2cnoc2)ccc1Oc1ccccc1-c1ccccc1` and `N#Cc1cc(S(=O)(=O)Nc2ncco2)ccc1Oc1ccccc1-c1ccccc1` are the same in IC50: 10000 nM for the first, 10000 nM for the second.

First: N#Cc1cc(S(=O)(=O)Nc2nccs2)ccc1Oc1ccccc1-c1ccno1
Second: N#Cc1cc(S(=O)(=O)Nc2nccs2)ccc1Oc1ccc(F)cc1-c1ccc(F)nc1
The IC50 of the first is 43-fold higher: 10000 nM for the first, 230 nM for the second.

Compared with `CCn1nc(C(F)(F)F)cc1-c1ccc(Oc2ccc(S(=O)(=O)Nc3ccc(C#N)cn3)cc2C#N)cc1`, `N#Cc1cc(S(=O)(=O)Nc2nccs2)ccc1Oc1ccc(-c2ccc(C(F)(F)F)cn2)cc1` is 3-fold lower in IC50: 10000 nM for the first, 3300 nM for the second.

Going from `N#Cc1cc(S(=O)(=O)Nc2ncsn2)ccc1Oc1ccccc1-c1ccccc1` to `Cc1cncnc1NS(=O)(=O)c1ccc(Oc2ccccc2-c2ccccc2)c(C#N)c1`, the IC50 rises from 4600 nM to 10000 nM (2.2-fold).

Going from `CC(C)(C)OC(=O)N1CCC(c2cc(Cl)ccc2Oc2ccc(S(=O)(=O)Nc3ncns3)cc2C#N)CC1` to `N#Cc1cc(S(=O)(=O)Nc2ncns2)ccc1Oc1ccc(C(F)(F)F)cc1C1CCOCC1`, the IC50 falls from 350 nM to 8.8 nM (40-fold). The second is the more potent here.

First: N#Cc1cc(S(=O)(=O)Nc2nccs2)ccc1Oc1ccc(-c2cc(C(F)(F)F)n(CCCF)n2)cc1F
Second: N#Cc1cc(S(=O)(=O)Nc2nccs2)ccc1Oc1ccc(Cl)cc1-c1c[nH]nc1C(F)(F)F
The IC50 of the first is 2.3-fold higher: 1000 nM for the first, 430 nM for the second.

`COC(=O)c1cc(Oc2ccc(S(=O)(=O)Nc3nccs3)cc2C#N)ccc1-n1cc(Cl)cn1` and `N#Cc1cc(S(=O)(=O)Nc2nccs2)ccc1Oc1ccc(-n2cc(Cl)cn2)c(C(=O)O)c1` are the same in IC50: 1000 nM for the first, 1000 nM for the second.

Compared with `Nc1cc(-c2cc(Cl)ccc2Oc2cc(F)c(S(=O)(=O)Nc3cscn3)cc2F)ccn1`, `O=S(=O)(Nc1cscn1)c1cc(F)c(Oc2ccc(Cl)cc2-c2ccnc(N3CCNCC3)c2)cc1F` is 5.1-fold lower in IC50: 19 nM for the first, 3.7 nM for the second. The second is the more potent here.

`COc1cccc(-c2ccc(Oc3ccc(S(=O)(=O)Nc4nccs4)cc3C#N)cc2)n1` and `Cn1cc(-c2ccc(Oc3ccc(S(=O)(=O)Nc4nccs4)cc3C#N)cc2)c(N)n1` are the same in IC50: 1000 nM for the first, 1000 nM for the second.

Compared with `Cc1cc(-c2ccnn2C)ccc1Oc1ccc(S(=O)(=O)Nc2ncc(F)s2)cc1C#N`, `Cn1ncnc1-c1cc(Cl)ccc1Oc1ccc(S(=O)(=O)Nc2ncc(F)s2)cc1C#N` is 3.7-fold lower in IC50: 1100 nM for the first, 300 nM for the second.

First: Cn1nccc1-c1cc(C(F)(F)F)ncc1Oc1ccc(S(=O)(=O)Nc2ncc(Cl)s2)cc1C#N
Second: Cc1nonc1NS(=O)(=O)c1ccc(Oc2ccc(Cl)cc2-c2ccnn2C)c(C#N)c1
The IC50 of the first is 45-fold lower: 220 nM for the first, 10000 nM for the second. The first is the more potent here.

`N#Cc1cc(S(=O)(=O)Nc2ncns2)ccc1Oc1ccc(-n2cc(COC(=O)C(F)(F)F)cn2)cc1` and `N#Cc1cc(S(=O)(=O)Nc2ncns2)ccc1Oc1ccc(-n2cc(CO)cn2)cc1` are the same in IC50: 1000 nM for the first, 1000 nM for the second.

Going from `CC(C)c1nsc(NS(=O)(=O)c2ccc(Oc3ccccc3-c3ccccc3)c(C#N)c2)n1` to `N#Cc1cc(S(=O)(=O)Nc2ccccc2C(F)(F)F)ccc1Oc1ccccc1-c1ccccc1`, the IC50 falls from 10000 nM to 3000 nM (3.3-fold).

`N#Cc1cc(S(=O)(=O)Nc2nccs2)ccc1Oc1ccc(N2CCCC2=O)cc1` and `N#Cc1cc(S(=O)(=O)Nc2nccs2)ccc1Oc1ccc(-n2cc(F)cn2)cc1` are the same in IC50: 1000 nM for the first, 1000 nM for the second.

Going from `O=S(=O)(Nc1nccs1)c1ccc(Oc2ccc(Oc3ccccc3)cc2)c(F)c1` to `COc1cc(-c2ccc(Oc3ccc(S(=O)(=O)Nc4nccs4)cc3)c(F)c2)n(C)n1`, the IC50 falls from 10000 nM to 2700 nM (3.7-fold).

`CN(C)Cc1cnn(-c2ccc(Oc3ccc(S(=O)(=O)Nc4nccs4)cc3C#N)cc2)c1` and `COCc1cnn(-c2ccc(Oc3ccc(S(=O)(=O)Nc4nccs4)cc3C#N)cc2)c1` are the same in IC50: 1000 nM for the first, 1000 nM for the second.

First: CC(C)(C)n1ccc(-c2cc(F)ccc2Oc2cc(F)c(S(=O)(=O)Nc3cscn3)cc2Cl)n1
Second: O=S(=O)(Nc1cscn1)c1cc(Cl)c(Oc2cc(C(F)(F)F)ccc2-c2cn[nH]c2)cc1F
The IC50 of the first is 3.8-fold higher: 1000 nM for the first, 260 nM for the second.

`Cn1cnnc1-c1cc(Cl)ccc1Oc1ccc(S(=O)(=O)Nc2nccs2)cc1F` and `CC(C)Oc1cc(-c2cc(F)ccc2Oc2ccc(S(=O)(=O)Nc3nccs3)cc2C#N)n(C)n1` are the same in IC50: 1000 nM for the first, 1000 nM for the second.

`Cn1nccc1-c1cc(Cl)ccc1Oc1ccc(S(=O)(=O)Nc2cc[nH]n2)cc1C#N` and `Cn1nccc1NS(=O)(=O)c1ccc(Oc2ccc(Cl)cc2-c2ccnn2C)c(C#N)c1` are the same in IC50: 10000 nM for the first, 10000 nM for the second.

`N#Cc1cc(S(=O)(=O)Nc2nccs2)ccc1Oc1cccc(-n2ccc(C(F)(F)F)n2)c1` and `N#Cc1cc(S(=O)(=O)Nc2nccs2)ccc1Oc1cnn(-c2ccc(Cl)cc2)c1` are within 1.5-fold of each other in IC50: 930 nM for the first, 1000 nM for the second.

Compared with `N#Cc1cc(S(=O)(=O)Nc2ncc(Cl)s2)ccc1Oc1ccc(Cl)cc1-c1ccnc(N)c1`, `N#Cc1cc(S(=O)(=O)Nc2cscn2)ccc1Oc1ccc(Cl)cc1-c1ccn(C(F)(F)F)n1` is 10-fold higher in IC50: 97 nM for the first, 1000 nM for the second.

Compared with `CC(C)Oc1cc(-c2cc(F)ccc2Oc2ccc(S(=O)(=O)Nc3cscn3)cc2C#N)n(C)n1`, `N#Cc1cc(S(=O)(=O)Nc2cscn2)ccc1Oc1ccc(Cl)cc1-n1cnc(C(F)(F)F)c1` is 3-fold lower in IC50: 3000 nM for the first, 1000 nM for the second.

`N#Cc1cc(S(=O)(=O)Nc2ccc(F)cn2)ccc1Oc1ccc(-n2ccnc2)cc1` and `CCc1nnc(C)n1-c1ccc(Oc2ccc(S(=O)(=O)Nc3ccc(F)cn3)cc2C#N)cc1` are the same in IC50: 3000 nM for the first, 3000 nM for the second.

`COc1cc(Oc2ccc(S(=O)(=O)Nc3ccc(F)cn3)cc2C#N)ccc1-n1cnc(C)c1` and `Cc1nc(-c2ccccc2Oc2ccc(S(=O)(=O)Nc3ccc(F)cn3)cc2C#N)cs1` are the same in IC50: 30000 nM for the first, 30000 nM for the second.

Compared with `N#Cc1cc(S(=O)(=O)Nc2nccs2)ccc1Oc1ccc(-c2cnn(CC(F)(F)F)c2N)cc1`, `Cn1nccc1-c1ccc(Oc2ccc(S(=O)(=O)Nc3nccs3)cc2C#N)cn1` is 10-fold lower in IC50: 10000 nM for the first, 1000 nM for the second. The second is the more potent here.

First: O=S(=O)(Nc1ncc(Cl)s1)c1cc(Cl)c(Oc2ccc(Cl)cc2C2CNC2)cc1F
Second: O=S(=O)(Nc1cscn1)c1cc(Cl)c(Oc2cc(C(F)(F)F)ccc2-c2cncnc2)cc1F
The IC50 of the first is 100-fold lower: 10 nM for the first, 1000 nM for the second.

Going from `N#Cc1cc(S(=O)(=O)Nc2ncns2)ccc1Oc1cc(C(F)(F)F)nn1Cc1ccccc1` to `N#Cc1cc(S(=O)(=O)Nc2ncns2)ccc1Oc1nnccc1-c1ccccc1`, the IC50 rises from 300 nM to 10000 nM (33-fold).

`CC(C)(C)NC(=O)c1cnn(-c2ccc(Oc3ccc(S(=O)(=O)Nc4nccs4)cc3C#N)cc2)c1` and `Cc1cc(C)n(-c2ccc(Oc3ccc(S(=O)(=O)Nc4nccs4)c(F)c3)cc2)n1` are the same in IC50: 1000 nM for the first, 1000 nM for the second.

`N#Cc1cc(S(=O)(=O)Nc2ncns2)cc(F)c1Oc1ccc(F)cc1-c1cn[nH]c1` and `N#Cc1cc(SNc2ncns2)ccc1Oc1ccc(F)cc1C1CC1` are within 1.5-fold of each other in IC50: 740 nM for the first, 1000 nM for the second.

Compared with `N#Cc1cc(S(=O)(=O)Nc2ccc(F)cn2)ccc1Oc1ccccc1C1CCCCO1` (centres undefined), `CN1CCN(c2ccc(Oc3ccc(SNc4nccs4)cc3C#N)cc2)C1=O` is 3-fold lower in IC50: 3000 nM for the first, 1000 nM for the second.
